Values quoted from earlier work, collected in article PMC8354143, “Cy3-RgIA-5727 Labels and Inhibits α9-Containing nAChRs of Cochlear Hair Cells” (Frontiers in Cellular Neuroscience, 2021).

What was measured:
[1] = tested on: voltage-gated calcium channels in the efferent terminals

Substance	antagonism of α9-containing nAChRs (α9-containing nAChRs)	time course of block of voltage-gated calcium channels [1] [min]
α-Conotoxin-RgIA	specific and potent antagonist of α9-containing nAChRs	–
ω-conotoxin GVIA	–	15 to 20
